Data from article PMC3352935, “Enzymatic Analysis of Recombinant Japanese Encephalitis Virus NS2B(H)-NS3pro Protease with Fluorogenic Model Peptide Substrates” (PLoS ONE, 2012).
Several values for one entry are separate records, joined by “and”; a condition that tells them apart may be missing. Identical values can stand only once. Like-named read-outs stand apart in the source and are kept apart here. Square brackets hold non-standard residues; d marks the D form. Peptide text beside a SMILES is read from it. * marks the point of attachment. AMC = Cc1cc(=O)oc2cc(N*)ccc12; Nle = CCCC[C@H](N)C(=O)O; Bz = O=C(c1ccccc1)*

How the values were obtained:
JEV NS2B(H)-NS3pro [1] = molecular target: T1, JEV NS2B(H)-NS3pro (Japanese encephalitis virus, UniProt P32886, DEL1469-1493); assay: Enzymatic activity assay with fluorogenic peptide substrates (Michaelis-Menten kinetics); type: biochemical; conditions: JEV protease
T1 construct: PCR-amplify the NS2B(H) region (amino acids 51–95 and 121–131); The N-terminal one-third (180 residues) of NS3 represents the protease domain NS3(pro); made in house; host or cells: E. coli (the text names both C41 and BL21), vector pTrcHisA

NS2B/NS3 protease of YFV = conditions: cited from earlier work
[2] = test system: NS2B/NS3 protease of DEN2; conditions: cited from earlier work
JEV NS2B(H)-NS3pro [3] = conditions: 25 mM NaCl; 100 µM Pyr-RTKR-amc, 0.5 µM enzyme, 50 mM Tris-HCl pH 9.5, 37°C
[4] = test system: dengue virus NS3 protease; conditions: 100 mM NaCl; cited from earlier work
N2B-NS3 protease of WNV = conditions: cited from earlier work
JEV NS2B(H)-NS3pro [5] = assay: Enzyme inhibition by aprotinin, Pyr-RTKR-amc substrate; type: biochemical, Japanese encephalitis virus; conditions: 0.5 µM enzyme, 50 mM Tris-HCl pH 9.5, 20% glycerol, aprotinin 0-20 µM, 37°C 30 minutes pre-incubation, 10 µM Pyr-RTKR-amc, triplicate
WNV NS3 protease = conditions: cited from earlier work
DEN2 NS3 protease = conditions: cited from earlier work
MVEV NS2B-NS3 = conditions: cited from earlier work

Compound: Cc1cc(=O)oc2cc(NC(=O)[C@H](CCCNC(=N)N)NC(=O)[C@H](CCCNC(=N)N)NC(=O)CNC(=O)OC(C)(C)C)ccc12 [Boc-GRR-amc]
- fold higher K m than Boc-LRR-amc (JEV NS2B(H)-NS3pro [1]): 3 fold
- fold higher catalytic efficiency than Boc-LRR-amc (JEV NS2B(H)-NS3pro [1]): about 10 fold
- K m (NS2B/NS3 protease of YFV): 142 µM
- k cat (NS2B/NS3 protease of YFV): 0.034 s⁻¹
- K m [2]: 150 µM
- k cat [2]: 0.13 s⁻¹

Compound: CCCC[C@H](NC(=O)c1ccccc1)C(=O)N[C@@H](CCCCN)C(=O)N[C@@H](CCCNC(=N)N)C(=O)N[C@@H](CCCNC(=N)N)C(=O)Nc1ccc2c(C)cc(=O)oc2c1 [Bz-nKRR-amc] (Bz-[Nle]KRR-{AMC})
- fold higher k cat/K m of benzoyl compared to acetyl group (Ac-nKRR-amc) (JEV NS2B(H)-NS3pro [1]): approximately 1.4 fold

Compound: [Cl-].[Na+] [NaCl]
- inhibition of cleavage of Pyr-RTKR-amc (JEV NS2B(H)-NS3pro [3]): about 50%
- inhibition of the dengue virus NS3 protease [4]: 40–50%

Compound: Abz-(R)4SAGnY-amide
- k cat/K m [2]: 11087 M⁻¹ s⁻¹

Compound: Pyr-RTKR-amc
- k cat [2]: 0.02 s⁻¹ and 0.013 s⁻¹
- K m (N2B-NS3 protease of WNV): 71 µM
- k cat (N2B-NS3 protease of WNV): 6.3 s⁻¹
- k cat/K m (N2B-NS3 protease of WNV): 88000 M⁻¹ s⁻¹

Compound: aprotinin
- IC50 (JEV NS2B(H)-NS3pro [5]): 4130 ± 170 nM
- Ki (WNV NS3 protease; WNV NS3 protease): 162 nM
- Ki (WNV NS3 protease; non-cleavable form of WNV NS2B-NS3pro): 26 nM
- Ki (DEN2 NS3 protease): 26 nM
- IC50 (MVEV NS2B-NS3): ~8000 nM and 7800 nM
